# Data from patent US20150166523A1, “BRANCHED CHAIN ALKYL HETEROAROMATIC RING DERIVATIVE” (TAISHO PHARMACEUTICAL CO., LTD., priority 2012, published 2015).
# Experiments:
# [1] = target: T1, human orexin-1 receptor (hOX1R) (Homo sapiens, UniProt O43613); experiment: Measurement of orexin antagonistic activity (intracellular Ca2+ fluorescence, FDSS) on hOX1R; type: cell-based; details: CHO cells forcibly expressing hOX1R; Fluo-4AM; ligand peptide (substituted human orexin-A) 300 pM; compound preincubated 30 minutes; read-out: IC50 Value OX1
# T1 construct: expressed in transfected cells; host or cells: Chinese hamster ovary (CHO) cells
# T1 sequence (O43613 1-425): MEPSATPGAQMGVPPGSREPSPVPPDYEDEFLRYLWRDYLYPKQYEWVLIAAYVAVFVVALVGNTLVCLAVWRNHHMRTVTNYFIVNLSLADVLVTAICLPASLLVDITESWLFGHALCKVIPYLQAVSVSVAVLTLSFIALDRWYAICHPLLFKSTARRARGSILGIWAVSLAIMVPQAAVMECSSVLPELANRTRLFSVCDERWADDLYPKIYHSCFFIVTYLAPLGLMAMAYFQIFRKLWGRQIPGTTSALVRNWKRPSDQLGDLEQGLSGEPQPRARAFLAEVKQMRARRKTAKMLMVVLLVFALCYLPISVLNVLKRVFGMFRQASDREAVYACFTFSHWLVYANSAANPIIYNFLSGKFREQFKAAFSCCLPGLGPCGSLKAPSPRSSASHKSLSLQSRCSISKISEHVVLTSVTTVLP
# Procedure: (§1) The antagonistic activities of the test compounds on human orexin-1 receptor (hOX1R) and orexin-2 receptor (hOX2R) were measured by modifying from the method described in literature (Toshikatsu Okumura et al., Biochemical and Biophysical Research Communications, 280, 976-981, 2001). Chinese hamster ovary (CHO) cells forcibly expressing the hOX1R and hOX2R were seeded into a 96 well Black clear bottom plate (Nunc) at 20,000 cells per well, which were cultured in Ham's F-12 medium containing 0.1 mM MEM non-essential amino acids, 0.5 mg/mL G418, 10% fetal bovine serum (all by Invitrogen) for 16 hours under the conditions of 37° C., 5% CO2. After removing the medium, 100 μL of 0.5 μM Fluo-4AM ester (Dojin) in an assay buffer (25 mM HEPES (Dojin), Hank's balanced salt solution (Invitrogen), 0.1% bovine serum albumin, 2.5 mM probenecid, 200 μg/mL Amaranth (all by Sigma-Aldrich), pH 7.4) was added and the cells were incubated for 60 minutes at 37° C., 5% CO2. After removing the assay buffer containing fluo-4AM ester, the test compound was dissolved in dimethyl sulfoxide to be 10 mM and diluted with the assay buffer, 150 μL, of which was added and incubated for 30 minutes.
# (§2) The reaction was measured for the fluorescence intensity of each well every second for 3 minutes using Functional Drug Screening System (FDSS; Hamamatsu Photonics K.K.), and the antagonistic activity was determined using the maximum fluorescence intensity as the indicator of intracellular Ca2+ concentration.
# [2] = target: T2, orexin-2 receptor (hOX2R) (Homo sapiens, UniProt O43614); experiment: Measurement of orexin antagonistic activity (intracellular Ca2+ fluorescence, FDSS) on hOX2R; type: cell-based; details: CHO cells forcibly expressing hOX2R; Fluo-4AM; ligand peptide (substituted human orexin-A) 3 nM; compound preincubated 30 minutes; read-out: IC50 Value OX2
# T2 construct: expressed in transfected cells; host or cells: Chinese hamster ovary (CHO) cells
# T2 sequence (O43614 1-444): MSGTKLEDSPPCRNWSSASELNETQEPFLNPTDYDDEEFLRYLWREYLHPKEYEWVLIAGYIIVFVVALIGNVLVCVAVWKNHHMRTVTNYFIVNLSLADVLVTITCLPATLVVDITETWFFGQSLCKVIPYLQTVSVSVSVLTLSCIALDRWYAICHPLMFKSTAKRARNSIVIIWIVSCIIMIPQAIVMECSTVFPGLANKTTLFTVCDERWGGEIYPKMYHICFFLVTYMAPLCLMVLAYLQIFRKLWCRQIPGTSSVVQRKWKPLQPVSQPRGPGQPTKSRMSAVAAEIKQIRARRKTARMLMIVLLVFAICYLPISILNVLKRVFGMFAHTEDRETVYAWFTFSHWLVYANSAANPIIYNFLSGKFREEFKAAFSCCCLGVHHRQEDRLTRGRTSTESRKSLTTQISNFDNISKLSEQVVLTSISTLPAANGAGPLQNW
# Procedure: as §1, §2
IC50 [1],IC50 [2],Structure (SMILES)
6.3 nM,9.8 nM,"CCN(C(=O)c1cc(C)ccc1-n1nccn1)[C@@H](C)Cn1cc(-c2cccc(F)c2)nn1 [Example 98, N-Ethyl-N-{(2S)-1-[4-(3-fluorophenyl)-1H-1,2,3-triazol-1-yl]propan-2-yl}-5-methyl-2-(2H-1,2,3-triazol-2-yl) benzamide]"
1.2 nM,5.5 nM,"COCCN(C(=O)c1cc(C)ccc1-n1nccn1)[C@@H](C)Cn1ccc(-c2ccc(F)cc2)n1 [Example 39, N-{(2S)-1-[3-(4-Fluorophenyl)-1H-pyrazol-1-yl]propan-2-yl}-N-(2-methoxyethyl)-5-methyl-2-(2H-1,2,3-triazol-2-yl)benzamide]"
30.9 nM,86.3 nM,"Cc1ccc(-n2nccn2)c(C(=O)N(CCO)[C@@H](C)Cn2cc(-c3ccc(F)cn3)cn2)c1 [Example 41, N-{(2S)-1-[4-(5-Fluoropyridin-2-yl)-1H-pyrazol-1-yl]propan-2-yl}-N-(2-hydroxyethyl)-5-methyl-2-(2H-1,2,3-triazol-2-yl)benzamide]"
1.3 nM,27.5 nM,"CCN(C(=O)c1cc(C)ccc1-n1nccn1)[C@@H](C)Cn1nnc(-c2ccc(F)cn2)n1 [Example 85, N-Ethyl-N-{(2S)-1-[5-(5-fluoropyridin-2-yl)-2H-tetrazol-2-yl]propan-2-yl}-5-methyl-2-(2H-1,2,3-triazol-2-yl)benzamide]"
229 nM,6930 nM,"Cc1ccc(-n2nccn2)c(C(=O)N(CCN(C)C)[C@@H](C)Cn2cc(-c3ccc(F)cc3)nn2)c1 [Example 89, N-[2-(Dimethylamino)ethyl]-N-{(2S)-1-[4-(4-fluorophenyl)-1H-1,2,3-triazol-1-yl]propan-2-yl}-5-methyl-2-(2H-1,2,3-triazol-2-yl)benzamide]"

# More lines, now with the values behind:
Structure (SMILES),IC50 [1],IC50 [2]
"CCN(C(=O)c1nc(C)ccc1-n1nccn1)[C@@H](C)Cc1noc(-c2ccc(F)cn2)n1 [Example 58, N-Ethyl-N-{(2S)-1-[5-(5-fluoropyridin-2-yl)-1,2,4-oxadiazol-3-yl]propan-2-yl}-6-methyl-3-(2H-1,2,3-triazol-2-yl) pyridine-2-carboxamide]",22.2 nM,1620 nM
"CCN(C(=O)c1ccc(F)cc1-c1ncccn1)[C@@H](C)Cn1ccc(-c2ccc(F)cc2)n1 [Example 14, N-Ethyl-4-fluoro-N-[(2S)-1-[3-(4-fluorophenyl)-1H-pyrazol-1-yl]propan-2-yl)-2-(pyrimidin-2-yl)benzamide]",1.3 nM,7 nM
"CCN(C(=O)c1cc(C)ccc1-n1nccn1)[C@@H](C)Cn1cc(-c2ccccc2)nn1 [Example 95, N-Ethyl-5-methyl-N-[(2S)-1-(4-phenyl-1H-1,2,3-triazol-1-yl)propan-2-yl]-2-(2H-1,2,3-triazol-2-yl)benzamide]",0.6 nM,17.7 nM
"CCN(C(=O)c1nc(C)ccc1-c1ncccn1)[C@@H](C)Cn1ccc(-c2ccc(F)cc2)n1 [Example 15, N-Ethyl-N-[(2S)-1-[3-(4-fluorophenyl)-1H-pyrazol-1-yl]propan-2-yl}-6-methyl-3-(pyrimidin-2-yl)pyridine-2-carboxamide]",1.2 nM,18 nM
"CCN(C(=O)c1cc(F)ccc1-n1nccn1)[C@@H](C)Cn1nnc(-c2ccc(F)cc2)n1 [Example 66, N-Ethyl-5-fluoro-N-{(2S)-1-[5-(4-fluorophenyl)-2H-tetrazol-2-yl]propan-2-yl}-2-(2H-1,2,3-triazol-2-yl) benzamide]",1.6 nM,129 nM
"CCN(C(=O)c1ccccc1-n1nccn1)[C@@H](C)Cc1noc(-c2ccc(F)cc2)n1 [Example 51, N-Ethyl-N-{(2S)-1-[5-(4-fluorophenyl)-1,2,4-oxadiazol-3-yl]propan-2-yl}-2-(2H-1,2,3-triazol-2-yl)benzamide]",0.2 nM,9.3 nM
"CCN(C(=O)c1cc(C)ccc1-n1nccn1)[C@@H](C)Cc1nnc(-c2ccc(F)cc2)o1 [Example 76, N-Ethyl-N-{(2S)-1-[5-(4-fluorophenyl)-1,3,4-oxadiazol-2-yl]propan-2-yl}-5-methyl-2-(2H-1,2,3-triazol-2-yl)benzamide]",1 nM,59.7 nM
